Calls of active or inactive are those of the source.
Legend:
[1] = target: Eukaryotic translation initiation factor 4E (Mus musculus, UniProt P63073); experiment: eIF4E–eIF4G protein interaction inhibitors, dose response, biochemical, TR-FRET (AID 855); format: functional;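 note: potency for disrupting eIF4E binding to eIF4GI seen as loss of FRET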
[2] = target: T1, Short transient receptor potential channel 4 (Mus musculus, UniProt Q9QUQ5); experiment: mouse TRPC4 channel inhibitors, dose response, cell-based, HEK293 TRPC4/mu-opioid, Fluo-4 calcium (AID 434942); format: functional;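 note: potency of inhibitors blocking the TRPC4 calcium response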
T1 sequence (Q9QUQ5 whole entry): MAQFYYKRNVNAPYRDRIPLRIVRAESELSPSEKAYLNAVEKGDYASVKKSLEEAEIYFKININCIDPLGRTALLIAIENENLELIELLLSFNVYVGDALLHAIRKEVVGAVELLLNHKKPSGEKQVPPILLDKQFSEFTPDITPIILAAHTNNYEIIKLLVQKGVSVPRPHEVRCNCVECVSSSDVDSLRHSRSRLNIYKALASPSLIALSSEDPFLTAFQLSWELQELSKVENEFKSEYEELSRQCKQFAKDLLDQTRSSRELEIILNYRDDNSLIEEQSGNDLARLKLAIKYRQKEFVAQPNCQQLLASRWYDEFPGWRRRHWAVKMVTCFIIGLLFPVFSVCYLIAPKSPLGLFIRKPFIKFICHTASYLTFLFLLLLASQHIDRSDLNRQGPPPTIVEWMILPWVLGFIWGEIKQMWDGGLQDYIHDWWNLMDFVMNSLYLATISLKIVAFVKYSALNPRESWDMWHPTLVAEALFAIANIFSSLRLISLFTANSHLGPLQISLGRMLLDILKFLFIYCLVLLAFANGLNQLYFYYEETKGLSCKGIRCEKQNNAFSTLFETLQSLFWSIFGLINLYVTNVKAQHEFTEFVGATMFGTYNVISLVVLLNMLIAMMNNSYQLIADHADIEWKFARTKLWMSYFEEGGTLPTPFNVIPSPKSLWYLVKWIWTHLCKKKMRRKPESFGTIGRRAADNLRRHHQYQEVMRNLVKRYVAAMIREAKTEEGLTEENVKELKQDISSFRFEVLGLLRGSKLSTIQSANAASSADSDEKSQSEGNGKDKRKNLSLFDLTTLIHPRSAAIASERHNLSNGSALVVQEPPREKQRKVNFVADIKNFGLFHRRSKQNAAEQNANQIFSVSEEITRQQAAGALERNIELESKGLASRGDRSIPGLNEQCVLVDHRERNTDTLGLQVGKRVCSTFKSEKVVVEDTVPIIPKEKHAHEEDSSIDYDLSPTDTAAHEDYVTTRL

[3] = off-target signal loss in HeLa-CEM21 co-culture – HeLa F-luc CTL cells, cherry-picked, counter-screen for HIV-1 Env fusion inhibitor project, dose response (AID 652040); format: functional, cell-based;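 note: potency for signal decrease marking cytotoxic or nonspecific inhibition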
[4] = Luminescence Cell-Based Dose Response HTS to Identify Activators of Luciferase Translation or Activity in H4 […] Cells. [Related pubchem assays: 1829 (Project Summary), 1814 (Primary HTS)]; format: functional
[5] = Luminescence Cell-Based Dose Confirmation HTS to Identify Activators of 5'UTR Stem-Loop Driven Alpha-Synuclein mRNA Translation in H4 Neuroglioblastoma Cells. [Related pubchem assays: 1829 (Project Summary), 1814 (Primary HTS)]; format: functional
[6] = inhibitors of clade B AD8 Env fusion, dose response, cell-based, cherry-pick (AID 652062); format: functional;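 note: luciferase signal from cell-cell fusion driven by HIV-1 clade B AD8 Env; potency is for inhibitors of fusion seen as a drop in luminescence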
[7] = CEM21 lymphoblast cell cytotoxicity, dose response, cytotoxicity control for viral fusion inhibitor project, CellTiter-Glo luminescence, cherry-picked (AID 652042); format: functional, cell-based;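 note: potency for signal decrease meaning cytotoxicity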
H4 = experiment: Luminescence Cell-Based Dose Response HTS to Identify Activators of 5'UTR Stem-Loop Driven Prion Protein mRNA Translation in H4 Neuroglioblastoma Cells. [Related pubchem assays: 1829 (Project Summary), 1814 (Primary HTS)]; format: functional; details: Homo sapiens
INS1 = experiment: beta cell apoptosis inhibitors, cytokine rescue, dose response, luminescence, retest (AID 449756); format: functional, cell-based; details: Rattus norvegicus;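 note: cell death triggered by IL-1 beta plus TNF-alpha plus IFN-gamma mixture; protective hits raise ATP signal compared with cytokine alone wells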
[8] = NIH-3T3 fibroblast cytotoxicity, dose response, cytotoxicity control, cell-based, fluorescence, Alamar Blue, secondary assay (AID 2327); format: functional;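 note: NIH-3T3 mouse fibroblasts cultured with fluconazole at 8 µg/mL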
[9] = C. albicans growth with fluconazole, confirmation, fluorescence, retest (AID 2467); format: functional, cell-based
Nonstructural protein 1 = Nonstructural protein 1 (Influenza A virus, UniProt Q194T2); format: functional, Influenza A virus (A/California/07/2009(H1N1))
[10] = inhibitors of HIV Env-driven cell fusion, dose response, cherry-pick (AID 652057); format: functional, cell-based
[11] = ZM109 Env clade C HIV-1 fusion inhibitors, dose response, HeLa effector, CEM target cells, luciferase, cherry-pick (AID 652058); format: functional, cell-based
[12] = target: T1, Short transient receptor potential channel 4; experiment: mouse TRPC4 channel activators, dose response, cell-based, HEK293 TRPC4/mu-opioid, Fluo-4 calcium (AID 434937); format: functional
Paired box protein Pax-8 = Paired box protein Pax-8 (Homo sapiens, UniProt Q06710); experiment: inhibitors of PAX8-driven TPO luciferase reporter, dose response, RMG-I cells, cherry-pick (AID 687027); format: functional, cell-based;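 note: luciferase reporter driven by Pax8 target thyroperoxidase promoter measured by SteadyGlo luminescence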
[13] = inhibitors of SNCA 5'UTR-driven reporter translation, confirmation, H4 neuroglioma cells, luminescence (AID 1988); format: functional, cell-based
[14] = cytotoxicity in HEK-293T cells, dose response, cytotoxicity control for BCR NF-kB inhibitor project, luminescence, B-cell screen hits (AID 489021); format: functional, cell-based;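 note: HEK-293T cells carrying an NF-kB luciferase reporter; cells exposed to compound for about 14 hours before viability readout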
[15] = inhibitors of firefly luciferase expression or activity, dose response, H4 neuroglioma cells, luminescence (AID 1990); format: functional, cell-based
[16] = Luminescence Cell-Based Dose Response HTS to Identify Inhibitors of 5'UTR Stem-Loop Driven Prion Protein mRNA Translation in H4 Neuroglioblastoma Cells. [Related pubchem assays: 1827 (Project Summary), 1813 (Primary HTS)]; format: functional

Eukaryotic translation initiation factor 4E, sequence (P63073 whole entry): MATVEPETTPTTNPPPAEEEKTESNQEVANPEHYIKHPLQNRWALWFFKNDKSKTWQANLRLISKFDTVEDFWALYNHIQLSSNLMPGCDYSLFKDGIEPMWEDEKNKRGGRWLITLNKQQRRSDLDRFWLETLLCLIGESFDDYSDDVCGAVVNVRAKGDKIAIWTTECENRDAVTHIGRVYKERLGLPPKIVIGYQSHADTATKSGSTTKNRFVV
Nonstructural protein 1, sequence (Q194T2 whole entry, the tested form may be a part): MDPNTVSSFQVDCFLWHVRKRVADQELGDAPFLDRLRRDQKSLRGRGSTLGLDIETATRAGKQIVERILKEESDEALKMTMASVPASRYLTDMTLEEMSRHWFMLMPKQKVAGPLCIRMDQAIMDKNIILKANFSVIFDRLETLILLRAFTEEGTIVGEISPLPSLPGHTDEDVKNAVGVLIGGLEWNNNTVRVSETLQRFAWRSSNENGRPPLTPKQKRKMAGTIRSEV
Paired box protein Pax-8, sequence (Q06710 whole entry): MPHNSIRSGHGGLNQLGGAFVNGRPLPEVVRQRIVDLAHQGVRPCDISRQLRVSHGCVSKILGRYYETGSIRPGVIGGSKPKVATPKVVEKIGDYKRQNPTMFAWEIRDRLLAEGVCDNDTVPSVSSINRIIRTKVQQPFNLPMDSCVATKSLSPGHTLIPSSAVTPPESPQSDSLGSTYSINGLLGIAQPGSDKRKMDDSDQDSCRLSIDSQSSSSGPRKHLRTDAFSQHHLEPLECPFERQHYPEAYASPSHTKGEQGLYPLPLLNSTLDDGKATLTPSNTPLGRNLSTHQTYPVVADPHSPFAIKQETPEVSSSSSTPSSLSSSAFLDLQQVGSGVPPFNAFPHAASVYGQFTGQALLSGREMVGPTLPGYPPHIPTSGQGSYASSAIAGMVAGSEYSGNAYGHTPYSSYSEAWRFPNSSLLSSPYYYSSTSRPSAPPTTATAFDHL

C=CCN1C(=O)CS/C1=N\c1cccc(O)c1
IC50 [1]: > 64 µM (inactive)

CCOc1ccccc1CN1CCN(Cc2cccc3nonc23)CC1CCO (centres undefined)
EC50 [2]: 5.31 µM (active)

C=CCn1c(S)nnc1-c1ccco1
IC50 [1]: > 64 µM (inactive)

Cc1cc(C)cc(NC(=N)Nc2nc(C)cc(C)n2)c1
EC50 [2]: 2.99 µM (active)

Cc1nnc(SC(=O)N2c3ccccc3Sc3ccccc32)s1
AC50 [3]: 30.8 µM (active)
EC50 [4]: > 60 µM (not active)
EC50 [5]: > 120 µM (not active)
AC50 [6]: 3.79 µM (active)
AC50 [7]: 10.6 µM (active)
EC50 (H4): > 120 µM (not active)

N#CC1=C(N)Oc2c(ccc3cccnc23)C1c1cccnc1 (centres undefined)
AC50 (INS1): 3.17 µM (active)
EC50 [8]: 22.1 µM (active)
EC50 [9]: 1.18 µM (active)
IC50 (Nonstructural protein 1): 56.6 µM (active)

Cc1ccc(C)c(NC(S)=NCCN(C2CCCCC2)C2CCCC2)c1
IC50 [1]: 50 µM (inactive)

CC1(Oc2ccc3ccccc3c2)CCN(Cc2cccn2-c2nccs2)C1 (centres undefined)
AC50 [3]: 14.7 µM (active)
AC50 [10]: 10.9 µM (active)
AC50 [11]: 12.3 µM (active)
AC50 [6]: 29.4 µM (active)
AC50 [7]: 51.9 µM (active)

COc1ccc(C(CCNCc2ccc(N(C)C)cc2)c2ccccc2)cc1 (centres undefined)
AC50 [3]: 17.5 µM (active)
AC50 [10]: 4.13 µM (active)
AC50 [11]: 14.4 µM (active)
AC50 [6]: 26.1 µM (active)
AC50 [7]: 18.2 µM (active)
EC50 [12]: 5.96 µM (active)

COC(=O)Cn1cnc2c(Cl)nc(F)nc21
AC50 [3]: 25.6 µM (active)
AC50 [10]: 20.5 µM (active)
AC50 [7]: 47.3 µM (active)

O=C(NCCC1CCCCN1S(=O)(=O)c1ccc(Cl)cc1)C(=O)NCc1ccncc1 (centres undefined)
AC50 (Paired box protein Pax-8): 3.27 µM (active)
EC50 [13]: 9.38 µM (active)
IC50 [14]: > 80 µM (inactive)
EC50 [15]: 15.5 µM (active)
EC50 [16]: 20.8 µM (active)

CCOc1cc2c3c(c1)C(C)CC(C)(C)N3C(=O)C2=O (centres undefined)
AC50 [3]: 12.2 µM (active)
AC50 [10]: 8.22 µM (active)
AC50 [11]: 6.91 µM (active)
AC50 [6]: 12.7 µM (active)
AC50 [7]: 50.9 µM (active)

— ChEMBL document CHEMBL1201862, “PubChem BioAssay data set” (2004)
